These results are taken from patent publication US9750841B2, “Biodegradable medical adhesive and preparation method and use thereof” (INSTITUTE OF PHARMACOLOGY AND TOXICOLOGY ACADEMY OF …, priority 2011, dated 2017).

Data set [1] can be described thus: TEM test of adhesive structure. The following applies: 0.1 mg/mL dilution in water, phosphotungstic acid staining. It counts as physicochemical. As for the experimental part:
20 mg of adhesive (A, n-butyl cyanoacrylate as control; B, formulated adhesive J01 (bis-α-cyanoacrylic acid PEG2000 ester:n-butyl cyanoacrylate 1:1, i.e., the formulated adhesive in Example 1) was dissolved in 1 mL of redistilled acetone, to obtain a homogeneous solution, which was diluted by 100-fold. 0.5 mL of the dilution was taken and mixed with 0.5 mL of deionized water. Acetone was distilled off, and water was supplemented till 1 mL, to obtain a 0.1 mg/mL dilution. 15 uL of the dilution was dropped on a copper web-like of electron microscopy, and settled for 15 min. Then, water was removed by adsorption with filter paper. After staining with 5 uL of phosphotungstic acid for 2 min, the samples were observed by transmission electron microscopy.

The conditions of data set [2]: rat, in vivo. As for the experimental part: Two groups of adult rats, each six, were taken. The abdominal cavity was opened, a section of small intestine was lifted and stretched out with a biodegradable thread, approximately 1 cm away from the body, and in an inverted “U” shape. […] After the adhesive bond was completely cured and the small intestine was adhered together (about 1 minute), the small intestine was put back into the abdominal cavity, followed by suturing. Normal healing time of biological tissue was about 7-10 days. After 2 weeks, the small intestine was stretched out again, for observing the changes of the small intestine per se and the adhesive bond.

The nature of data set [3]: Degradation of cured adhesive in PBS buffer. It is filed as physicochemical. The conditions noted are these: 14 days, 0.1 M phosphate buffer pH 7.2-7.4, 37.5° C., average of three samples. From the text: After 14 days, the residual solids were weighed. The results were used to evaluate the degradation properties.
Data set [4] is described as follows: Test of curing time of formulated adhesives on pigskin. The conditions noted are these: between two pieces of pigskin, room temperature. It counts as physicochemical. From the text:
Test Method: The medical adhesives of different formulations in Examples 1 and 2 were respectively dropped in a small amount on the surface of one piece of pigskin at room temperature, and the other piece of pigskin was rapidly lapped thereon; the two pieces of pigskin were respectively pulled in opposite directions, to test the adhesion between them. The duration starting from the generation of adhesion between the two pieces of pigskin to the complete cure of the liquid adhesive between the two pieces of pigskin after lapping for a certain time was designated as the curing time.

A short description of data set [5]: Adhesion test of skin incision injury of dog. It is filed as in vivo. The conditions noted are these: 4 cm skin incision, two stitches plus adhesive, after one week.
Experimental: Adult test dogs (purchased from Experimental Animal Center of Academy of Military Medical Sciences) were unhaired on the neck and back, and disinfected. A longitudinal incision of about 4 cm in length was cut on the left side, deep to muscular layer. […] On the other side of the same position, an incision of the same size was cut, and also sutured in two stitches. Then, the wound was treated in the same way with n-butyl cyanoacrylate.
The nature of data set [6]: Adhesion test of skin incision injury, rats. It counts as in vivo. The following applies: 2 cm dorsal skin incision, observed over 7 days. As to the method:
(§1) Five adult rats and five guinea pigs were unhaired on the back, and subjected to abdominal anesthesia. After the back was disinfected, a longitudinal incision of about 2 cm in length was cut about 1 cm next to the dorsal line, deep to muscular layer. […] On the other side of the back, an incision of the same size was cut, and the wound was treated in the same way with the control adhesive n-butyl cyanoacrylate. Finally, the operative sites were bandaged using gauze.

Data set [7] in a line: Accelerated degradation in 0.1 N NaOH solution. It is filed as physicochemical. The following applies: disappearance to the naked eye. As to the method: Further accelerated degradation test was carried out in a 0.1 N NaOH solution. The operation method was the same as that provided in this example, with the use of formulated adhesive J01 and the control as samples. The time point when the adhesive bond completely disappeared to the naked eye was regarded as the complete degradation time.

Data set [8] in a line: Intestinal skyrocketing compression test in rats. It is filed as in vivo, SD rats. The following applies: rat small intestine, 2 mm hole closed with 5 uL adhesive, tested after 3 min, seven animals per group. As for the experimental part:
Twenty SD rats (purchased from Experimental Animal Center of Academy of Military Medical Sciences) were anaesthetized by intraperitoneal injection of 45 mg/kg sodium pentobarbital, and unhaired on the abdomen. The abdominal cavity was opened, and a section of small intestine 45 mm was taken out. One end of the small intestine was ligated with a silk thread, and the other end was cut to make a small incision, which was then connected to a three-way tube in connection with a pressure gauge and a tension transducer. A syringe needle 2 mm in diameter was used to open a small hole in the small intestine. After cleaning off drainage with cotton, the small hole was rapidly closed by smearing 5 uL medical adhesive, and then test was conducted after standing for 3 min. […] The pressure value at this point was just the maximum tolerable pressure. There were seven animals per group, and the average value and variance were calculated.

A short description of data set [9]: Adhesion test of skin incision injury, guinea pigs. It counts as in vivo. The following applies: 2 cm dorsal skin incision, observed over 7 days. As to the method:
as §1

Take `C=C(C#N)C(=O)OCCCC` [n-butyl cyanoacrylate]: the “structure observed by transmission electron microscopy” value in [1] was “relatively solid and dense microsphere structure”. Moreover, the “changes of the small intestine tissue” value in [2] was “significantly had hyperplasia and significantly became thicker”. The “Residual solids % in PBS” value in data set [3] is reported as 95.74%. The curing time in data set [4] lay within 5 to 15 s. For the same compound, the wound healing entry in data set [5] is listed as “good healing”. In addition, the wound closure result in [6] and in data set [9] was “well closed” in each case. For the same compound, the “complete degradation time in NaOH (solids completely disappeared)” value in data set [7] was 4 days. In addition, the maximum tolerable pressure in [8] came to 120.22±26.81 mmHg.
